Experimental data taken from US10858357B2, “Water-soluble myosin 2 inhibitors for the treatment of neurological, neuropathic or psychiatric diseases” (PARIS SCIENCES ET LETTRES-QUARTIER LATIN, priority 2016, dated 2020).
Where two headings read alike, the source gives them in different places.

What was measured:
[1] = Fluorescence emission spectrum; type: physicochemical; conditions: 5 μM, λexc=350 nm, assay buffer 0.1% DMSO
Procedure: Fluorescence emission spectra (λexc=350 nm) were recorded in assay buffer containing 0.1% DMSO applying the inhibitors at 5 μM concentrations. The photoconversion measurements were carried out using 5 μM neurelaxin-A in assay buffer and irradiating the samples at 480±10 nm for 0, 5, 10 and 15 minutes using a Fluorescence Spectrometer (F900, Edinburgh Instruments) equipped with a 450 W Xenon Lamp. Their absorbance spectra were measured at each time point.
Fluorescence emission spectra (λexc.=350 nm) were recorded in assay buffer containing 0.1% DMSO comprising the inhibitor at 5 μM concentration.

[2] = target: T1, Dictyostelium discoideum myosin 2 motor domain (DdMD) (Dictyostelium discoideum, UniProt P08799); test: Steady state MgATPase, NADH-coupled assay, DdMD; type: biochemical; conditions: for IC50: 20° C.
T1 construct: Dictyostelium discoideum myosin 2 motor domain (DdMD)
T1 sequence (P08799 86-759 limits assumed): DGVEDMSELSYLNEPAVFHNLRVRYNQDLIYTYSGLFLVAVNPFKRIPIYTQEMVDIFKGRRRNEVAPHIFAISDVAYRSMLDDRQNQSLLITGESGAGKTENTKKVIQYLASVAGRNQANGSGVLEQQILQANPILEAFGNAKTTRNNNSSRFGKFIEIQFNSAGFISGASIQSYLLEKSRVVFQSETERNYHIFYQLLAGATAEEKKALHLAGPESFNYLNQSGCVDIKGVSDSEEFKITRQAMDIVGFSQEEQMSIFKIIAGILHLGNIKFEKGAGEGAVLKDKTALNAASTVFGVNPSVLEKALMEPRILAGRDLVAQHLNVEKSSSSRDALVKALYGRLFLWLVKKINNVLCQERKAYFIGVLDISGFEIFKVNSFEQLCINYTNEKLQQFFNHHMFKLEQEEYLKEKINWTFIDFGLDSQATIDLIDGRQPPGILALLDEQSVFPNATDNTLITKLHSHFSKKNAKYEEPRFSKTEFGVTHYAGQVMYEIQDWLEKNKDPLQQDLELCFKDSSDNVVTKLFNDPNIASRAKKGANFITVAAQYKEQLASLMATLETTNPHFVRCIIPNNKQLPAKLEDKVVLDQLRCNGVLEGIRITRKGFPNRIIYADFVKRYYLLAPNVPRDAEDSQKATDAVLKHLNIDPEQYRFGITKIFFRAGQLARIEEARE
Procedure: MgATPase activities of 500 nM (for basal ATPase) or 50 nM (for actin activated ATPase) SkS1 (rabbit skeletal S1 fragment) 23 and 1 μM (for basal ATPase) or 300 nM (for actin activated ATPase) DdMD were measured at increasing concentrations of neurelaxin-A in the absence or in the presence of 45 μM actin for SkS1 or 15 μM actin for DdMD. Measurements were carried out using a pyruvate kinase/lactate dehydrogenase coupled assay (NADH-coupled assay) (Kovacs M. et al., J. Biol. Chem. 2004, 279 (34), pp 35557-35563) at 25° C. or 20° C. in case of SkS1 or DdMD, respectively. Myosin and actin together with the indicated concentration of the inhibitor were pre-incubated for 5 minutes at room temperature and the measurements were initiated with 1 mM ATP. Data were corrected for background ATPase activity of actin. G-actin was prepared accordingly from rabbit skeletal muscle (Spudich, J. A. & Watt, S.; The Journal of Biological Chemistry 246, 1971, pp 4866-4871) and polymerized by 2 mM MgCl2 for 1 hour at room temperature. Measurements were performed in low salt buffer containing 5 mM HEPES, 2 mM MgCl2, 0.1 mM EGTA and 2 mM DTT at pH 7.2 or assay buffer containing 20 mM HEPES, 40 mM NaCl, 4 mM MgCl2 at pH 7.3 for basal ATPase activity measurements with DdMD.
The basal and actin activated ATPase activities of rabbit skeletal muscle myosin S1 (SkS1) and Dictyostelium discoideum myosin 2 motor domain (DdMD) were measured at increasing concentrations of neurelaxin-A (FIGS. 3A and 3B).

[3] = test system: human melanoma (M2) cells; test: Inhibition of blebbing of M2 cells (blebbing index); type: cell-based
Procedure: For blebbing index determination, M2 cells were incubated for 30 minutes in PBS in every case prior to the addition of inhibitors, in order to initiate extensive blebbing. Blebbing of the cells was monitored before as well as after inhibitor addition to the cells. DMSO concentration was 0.1 vol/vol % in all experiments. Blebbing index was calculated by summing the initiated blebs in a 5-minute interval (starting at the indicated time points) on a given standard area 17 (whole cells with similar size, diameter=12±1 μm) and normalizing it to the blebbing index prior to inhibitor treatment.
As myosin 2 inhibition blocks blebbing of M2 cells (Straight et al., Science, 2003, 299 (5613), pp 1743-7), the blebbing indices ((Charras, G. T., Yarrow, J. C., Horton, M. A., Mahadevan, L. & Mitchison, T. J. Non-equilibration of hydrostatic pressure in blebbing cells. Nature 435, 365-369, doi:10.1038/nature03550 (2005))) of M2 cells were measured in time, after incubating the cells in neurelaxin-A at different concentrations (FIG. 3C).

[4] = test system: Mauthner axon of zebrafish embryos; test: Mauthner axon regeneration after photoablation; type: in vivo; conditions: 3 dpf zebrafish embryos
Excerpt: The Mauthner neuron is a giant neuron in the hindbrain of zebrafish embryos, which is a widely used model for studying regeneration. The Mauthner axon of 3 dpf zebrafish embryos was photoablated with two-photon irradiation at 800 nm.

neurons = test: Oxidative stress resistance (H2O2) of neurons; type: cell-based; conditions: 30 μM H2O2
Procedure: Hydrogen Peroxide (H2O2) is used for generating reactive oxygen species and consequently, leading to oxidative stress and neuronal loss.
In this experiment, the neurons were first incubated with 30 μM of H2O2 or not (witness sample). Then, the neurons were treated with DMSO solutions with or without Neurelaxin-A.

SMILES: Cc1ccc2c(c1)C(=O)C1(O)CCN(c3ccc(N)cc3)C1=N2 (stereo not drawn) [Neurelaxin-A, 1-(4-aminophenyl)-3a-hydroxy-6-methyl-3,3a-dihydro-1H-pyrrolo[2,3-b]quinolin-4(2H)-one]
- fluorescence signal [1]: no fluorescence signal
- inhibition reached, actin activated ATPase of DdMD ([2]; actin activated): 80%
- IC50 ([2]; actin activated, 300 nM DdMD, 15 μM actin, read-out: IC50 actin activated ATPase activity of DdMD): 6.7 ± 1.9 µM
- inhibition reached, basal ATPase of DdMD ([2]; basal): 90%
- IC50 ([2]; basal, 1 μM DdMD, read-out: IC50 basal ATPase of DdMD): 6.6 ± 2 µM
- τ, time constant of suppression of blebbing index ([3]; 5 μM): 25.0 ± 4.3 min
- effect on blebbing indices ([3]; 5 μM, within an hour): significant decrease
- time within which blebbing completely stopped ([3]; 10 μM): 40 to 60 min
- τ, time constant of suppression of blebbing index ([3]; 10 μM): 16.8 ± 1.6 min
- time within which blebbing completely stopped ([3]; 25 μM): > 20 min
- τ, time constant of suppression of blebbing index ([3]; 25 μM): 9.9 ± 0.3 min
- time within which blebbing completely stopped ([3]; 50 μM): > 20 min
- τ, time constant of suppression of blebbing index ([3]; 50 μM): 7.8 ± 0.3 min
- maximum rate of axon growth [4]: 0.6 um/min
- time after treatment at which axon regrowth is induced [4]: 1 h
- time of treatment at which maximum rate of growth is reached [4]: 2 h
- start of axon regrowth post-ablation ([4]; spontaneous regrowth normally after 30 hours): 19 h
- neuronal survival and axon maintenance under oxidative stress (neurons): increased
